According to patent publication US20250120958A1, “Treatment of GM2 Gangliosidosis” (Azafaros B.V., priority 2022, published 2025):
Entries after “also recorded” stand apart in the source; their conditions may differ. Like-named read-outs stand apart in the source and are kept apart here.

Experiments:
[1] = Plasma pharmacokinetics after 16 weeks of once daily administration (LC-MS/MS); format: in vivo, mouse
Protocol: At the end of the defined treatment period, mice were humanely euthanized by transcardial perfusion with Ringer solution after C02 asphyxiation. […]. Before perfusion, blood samples were collected via cardiac puncture into K2EDTA tubes and stored on wet ice. Whole blood was processed to plasma by centrifugation (3000 g for 10 minutes at 5° C.) within 30 min of collection and stored at −75° C.
Unless otherwise stated, the methodology and sample collection were performed as in Example 2.

[2] = tested on: Sandhoff mouse model (Hexb (−/−)); test: Rotarod (RR) test in Sandhoff mice; format: in vivo; details: 16 weeks, 0.5-6 mg/kg/day
Protocol: In the ROT, all animals were on the day before the first testing, habituated to the device for 5 min using a continuous rotation speed of 4-40 rotations per minute (rpm). For the subsequent experiments, no prior habituation was conducted. In the actual testing procedure, the test was conducted over 5 min with an accelerating rotation of 4-40 rpm. Time was measured until the animals fell from the rod. Up to 5 animals could be tested simultaneously.
Behavioral assessments, including open field tests (OFT, ActiMot, TSE systems) and rotarod (RR, IITC Life Sciences), were also performed. The OFT assessed motor skills by placing a mouse into a square box with high walls for 5 minutes to record several parameters, including distance travelled (centimetres) and resting time in zone (seconds). Motor coordination of mice was assessed using a RR apparatus as per previously published protocol (Osmon, Vyas et al. 2018). Briefly, mice were placed on moving cylinders that accelerated from 4 to 40 rotations per minute (rpm) over 5 minutes. Each mouse was allowed three trials on the RR with a minimum of 10 minutes for rest in-between assessments. The highest number achieved was recorded for each of the following parameters: latency to fall, end rotations per minute and distance travelled.

SMILES: OC[C@H]1[C@@H](O)[C@H](O)[C@@H](O)CN1CCCCCOCc1ccc(-c2ccccc2)c(F)c1 [AZ-3102]
- Cmax difference between lowest and highest dose ([1]; 6 vs 0.5 mg/kg/day): approximately 7 fold
- Cmax ([1]; Hexb (−/−) (Sandhoff mice), mouse, oral, plasma, 0.5 to 6 mg/kg/day, steady state, read-out: Cmax, range over doses): 100 to 674 ng/mL
- AUC(0-t) ([1]; Hexb (−/−) (Sandhoff mice), mouse, oral, plasma, 0.5 to 6 mg/kg/day, steady state, read-out: mean AUC0-24, range over doses): 417 to 3610 ng·h/mL
- AUC(0-t) ([1]; Hexb (−/−) (Sandhoff model), mouse, plasma, po, Sand A, Hexb (−/−), 6 mg/kg/day, 16 weeks once daily, read-out: AUC0-24): 3610 ng·h/mL
- Cmax ([1]; Hexb (−/−) (Sandhoff model), mouse, plasma, po, Sand A, Hexb (−/−), 6 mg/kg/day, 16 weeks once daily, read-out: Cmax): 674 ng/mL
- AUC(0-t) ([1]; Hexb (−/−) (Sandhoff model), mouse, plasma, po, Sand B, Hexb (−/−), 3 mg/kg/day, 16 weeks once daily, read-out: AUC0-24): 1980 ng·h/mL
- Cmax ([1]; Hexb (−/−) (Sandhoff model), mouse, plasma, po, Sand B, Hexb (−/−), 3 mg/kg/day, 16 weeks once daily, read-out: Cmax): 446 ng/mL
- AUC(0-t) ([1]; Hexb (−/−) (Sandhoff model), mouse, plasma, po, Sand D, Hexb (−/−), 1.5 mg/kg/day, 16 weeks once daily, read-out: AUC0-24): 987 ng·h/mL
- Cmax ([1]; Hexb (−/−) (Sandhoff model), mouse, plasma, po, Sand D, Hexb (−/−), 1.5 mg/kg/day, 16 weeks once daily, read-out: Cmax): 159 ng/mL
- AUC(0-t) ([1]; Hexb (−/−) (Sandhoff model), mouse, plasma, po, Sand E, Hexb (−/−), 0.5 mg/kg/day, 16 weeks once daily, read-out: AUC0-24): 417 ng·h/mL
- Cmax ([1]; Hexb (−/−) (Sandhoff model), mouse, plasma, po, Sand E, Hexb (−/−), 0.5 mg/kg/day, 16 weeks once daily, read-out: Cmax): 100 ng/mL
- concentration at 24 h ([1]; Hexb (−/−) and Hexb (+/−), mouse, plasma, oral, all doses): ~1 ng/mL
- Cmax/D ([1]; Sand E, Hexb (−/−), 0.5 mg/kg/day): 200 (ng/mL)/(mg/kg)
- AUC(0-t) ([1]; mouse, plasma, po, Het B, Hexb (+/−), 3 mg/kg/day, 16 weeks once daily, read-out: AUC0-24): 1960 ng·h/mL
- Cmax ([1]; mouse, plasma, po, Het B, Hexb (+/−), 3 mg/kg/day, 16 weeks once daily, read-out: Cmax): 370 ng/mL
- RR assessments, effect of treatment vs vehicle [2]: significant at all dose levels; also recorded: significantly improved
